Measured values published in EP2987533B1, “7-substituted piperazin-1-yl fluoroquinolone compounds, their use in the treatment of cancer, pharmaceutical compositions and a method for preparation” (priority 2014, dated 2016).

Assays:
Assay in all cases: NCI one-dose SRB growth assay
Format in all cases: cell-based
[1] = test system: OVCAR-4; conditions: Homo sapiens; OVCAR-4 (Ovarian Cancer), 10^-5 M, 48 h; read-out: % Growth Inhibition (GI %)
Method: (§1) A primary anticancer assay was performed for an approximately 60 human tumor cell line panel derived from nine neoplastic diseases, in accordance with the protocol of the Drug Evaluation Branch, National Cancer Institute, Bethesda, MD (Monks A. et al., J. Natl. Cancer Inst 1991, 83, 757-766; Boyd M.R. and Paull K.D., Drug. Dev. Res. 1995, 34, 91-109; Shoemaker R.H., Nat. Rev. Cancer 2006, 6, 813-823). Briefly, tested compounds were added to the culture at a single concentration (10^-5M), and the cultures were incubated for 48 h. End point determinations were made with a protein binding dye, sulforhodamine B (SRB). The results for each tested compound were reported as the growth percentage of the treated cells when compared to that of the untreated control cells. The percentage growth was evaluated spectrophotometrically versus controls not treated with test agents.

[2] = test system: PRMI-8226; conditions: Homo sapiens; PRMI-8226 (Leukemia), 10^-5 M, 48 h; read-out: % Growth Inhibition (GI %)
Method: as §1

[3] = test system: 786-0; conditions: Homo sapiens; 786-0 (Renal Cancer), 10^-5 M, 48 h; read-out: % Growth Inhibition (GI %)
Method: as §1

[4] = test system: MALME-3M; conditions: Homo sapiens; MALME-3M (Melanoma), 10^-5 M, 48 h; read-out: % Growth Inhibition (GI %)
Method: as §1

[5] = test system: MDA-MB-468; conditions: Homo sapiens; MDA-MB-468 (Breast Cancer), 10^-5 M, 48 h; read-out: % Growth Inhibition (GI %)
Method: as §1

[6] = test system: MDA-MB-231/ATCC; conditions: Homo sapiens; MDA-MB- 231/ATCC (Breast Cancer), 10^-5 M, 48 h; read-out: % Growth Inhibition (GI %)
Method: as §1

[7] = test system: UACC-257; conditions: Homo sapiens; UACC-257 (Melanoma), 10^-5 M, 48 h; read-out: % Growth Inhibition (GI %)
Method: as §1

[8] = test system: HOP-92; conditions: Homo sapiens; HOP-92 (Non-Small Cell Lung Cancer), 10^-5 M, 48 h; read-out: % Growth Inhibition (GI %)
Method: as §1

[9] = test system: HL-60(TB); conditions: Homo sapiens; HL-60(TB) (Leukemia), 10^-5 M, 48 h; read-out: % Growth Inhibition (GI %)
Method: as §1

[10] = test system: SN12C; conditions: Homo sapiens; SN12C (Renal Cancer), 10^-5 M, 48 h; read-out: % Growth Inhibition (GI %)
Method: as §1

[11] = test system: UACC-62; conditions: Homo sapiens; UACC-62 (Melanoma), 10^-5 M, 48 h; read-out: % Growth Inhibition (GI %)
Method: as §1

[12] = test system: SNB-19; conditions: Homo sapiens; SNB-19 (CNS Cancer), 10^-5 M, 48 h; read-out: % Growth Inhibition (GI %)
Method: as §1

[13] = test system: UO-31; conditions: Homo sapiens; UO-31 (Renal Cancer), 10^-5 M, 48 h; read-out: % Growth Inhibition (GI %)
Method: as §1

[14] = test system: A498; conditions: Homo sapiens; A498 (Renal Cancer), 10^-5 M, 48 h; read-out: % Growth Inhibition (GI %)
Method: as §1

[15] = test system: K-562; conditions: Homo sapiens, K562; K-562 (Leukemia), 10^-5 M, 48 h; read-out: % Growth Inhibition (GI %)
Method: as §1

[16] = test system: TK-10; conditions: Homo sapiens; TK-10 (Renal Cancer), 10^-5 M, 48 h; read-out: % Growth Inhibition (GI %)
Method: as §1

[17] = test system: HCT-15; conditions: Homo sapiens; HCT-15 (Colon Cancer), 10^-5 M, 48 h; read-out: % Growth Inhibition (GI %)
Method: as §1

[18] = test system: NCI-H23; conditions: Homo sapiens; NCI-H23 (Non-Small Cell Lung Cancer), 10^-5 M, 48 h; read-out: % Growth Inhibition (GI %)
Method: as §1

[19] = test system: NCI-H522; conditions: Homo sapiens; NCI-H522 (Non-Small Cell Lung Cancer), 10^-5 M, 48 h; read-out: % Growth Inhibition (GI %)
Method: as §1

[20] = test system: CAKI-1; conditions: Homo sapiens; CAKI-1 (Renal Cancer), 10^-5 M, 48 h; read-out: % Growth Inhibition (GI %)
Method: as §1

[21] = test system: SK-MEL-5; conditions: Homo sapiens; SK-MEL-5 (Melanoma), 10^-5 M, 48 h; read-out: % Growth Inhibition (GI %)
Method: as §1

[22] = test system: OVCAR-8; conditions: Homo sapiens; OVCAR-8 (Ovarian Cancer), 10^-5 M, 48 h; read-out: % Growth Inhibition (GI %)
Method: as §1

[23] = test system: M14; conditions: Homo sapiens; M14 (Melanoma), 10^-5 M, 48 h; read-out: % Growth Inhibition (GI %)
Method: as §1

[24] = test system: OVCAR-3; conditions: Homo sapiens; OVCAR-3 (Ovarian Cancer), 10^-5 M, 48 h; read-out: % Growth Inhibition (GI %)
Method: as §1

[25] = test system: RXF 393; conditions: Homo sapiens; RXF 393 (Renal Cancer), 10^-5 M, 48 h; read-out: % Growth Inhibition (GI %)
Method: as §1

[26] = test system: SK-MEL-2; conditions: Homo sapiens; SK-MEL-2 (Melanoma), 10^-5 M, 48 h; read-out: % Growth Inhibition (GI %)
Method: as §1

Structure (SMILES) | inhibition at 10 µM [1] [%] | inhibition at 10 µM [2] [%] | inhibition at 10 µM [3] [%] | inhibition at 10 µM [4] [%] | inhibition at 10 µM [6] [%] | inhibition at 10 µM [7] [%] | inhibition at 10 µM [8] [%] | inhibition at 10 µM [9] [%] | inhibition at 10 µM [10] [%] | inhibition at 10 µM [11] [%] | inhibition at 10 µM [12] [%] | inhibition at 10 µM [13] [%] | inhibition at 10 µM [14] [%] | inhibition at 10 µM [15] [%] | inhibition at 10 µM [16] [%] | inhibition at 10 µM [17] [%] | inhibition at 10 µM [18] [%] | inhibition at 10 µM [19] [%] | inhibition at 10 µM [20] [%] | inhibition at 10 µM [21] [%] | also measured
CCn1cc(C(=O)O)c(=O)c2cc(F)c(N3CCN(S(=O)(=O)c4c(C)cc(C)cc4C)CC3)cc21 [Compound 6a] | < 10 | 35.9 | < 10 | < 10 | 16.3 | < 10 | 12.6 | 26.9 | 11.5 | 24.1 | 10.1 | 66.9 | 21.1 | 20.1 | < 10 | 28.5 | 22.3 | 13.5 | 10.7 | 20.5 | inhibition at 10 µM [5]: 19.7%; inhibition at 10 µM [22]: 18.5%; inhibition at 10 µM [23]: 24.4%; inhibition at 10 µM [24]: 10.8%; inhibition at 10 µM [25]: 11.1%; inhibition at 10 µM [26]: 11.3%
O=c1[nH]cc(F)c(=O)[nH]1 [Compound 5-FU, 5-fluorouracil, reference compound] | 59.4 | 41.4 | 48.7 | 58.2 | 78.1 | 19.5 | 50.6 | 47.9 | 54 | 39.7 | 65.9 | 41.3 | > 100 | 42.3 | 66.9 | 26.5 | 39 | 58 | 39.4 | 33.7 | inhibition at 10 µM [24]: 47.4%; inhibition at 10 µM [25]: 34.3%; inhibition at 10 µM [26]: 95.5%
O=C(O)c1cn(C2CC2)c2cc(N3CCN(S(=O)(=O)c4ccc(Cl)cc4Cl)CC3)c(F)cc2c1=O [Compound 2b] | 35.9 | 21.3 | < 10 | < 10 | < 10 | < 10 | < 10 | 13.1 | 13.8 | 14.6 | < 10 | 40 | 23.6 | < 10 | < 10 | 16.2 | 16.8 | < 10 | 12.1 | 79.8 | inhibition at 10 µM [5]: 65.1%; inhibition at 10 µM [22]: < 10%; inhibition at 10 µM [23]: < 10%; inhibition at 10 µM [24]: < 10%; inhibition at 10 µM [25]: 67.7%; inhibition at 10 µM [26]: < 10%
CCn1cc(C(=O)O)c(=O)c2cc(F)c(N3CCN(S(=O)(=O)c4ccc(Cl)cc4Cl)CC3)cc21 [Compound 2a] | < 10 | 90.9 | 81.3 | > 100 | 74.5 | > 100 | > 100 | > 100 | 89.7 | 83.8 | 73.8 | > 100 | > 100 | 89.1 | 87.6 | 92.4 | > 100 | > 100 | 95.2 | > 100 | inhibition at 10 µM [5]: > 100%; inhibition at 10 µM [22]: 94.2%; inhibition at 10 µM [23]: 84.1%; inhibition at 10 µM [24]: 92.1%; inhibition at 10 µM [25]: 72.1%; inhibition at 10 µM [26]: > 100%
Cc1cc(C)c(S(=O)(=O)N2CCN(c3cc4c(cc3F)c(=O)c(C(=O)O)cn4C3CC3)CC2)c(C)c1 [Compound 6b] | 24.4 | 77.7 | 24.4 | 40.3 | 15.4 | 13.1 | 53.1 | 91.3 | 86.1 | 23.4 | 33.7 | 83.9 | 37 | 36.5 | 13.5 | 44.9 | 42.6 | 32.7 | 32.9 | 45.1 | inhibition at 10 µM [5]: 34.9%; inhibition at 10 µM [22]: 40.5%; inhibition at 10 µM [23]: 36.5%; inhibition at 10 µM [24]: < 10%; inhibition at 10 µM [25]: 48.7%; inhibition at 10 µM [26]: < 10%
CCn1cc(C(=O)O)c(=O)c2cc(F)c(N3CCN(S(=O)(=O)c4ccc(Cl)cc4)CC3)cc21 [Compound 1a] | 62.3 | 86.6 | 76.3 | 76.2 | 58.9 | 71 | > 100 | 91 | 88.4 | 78.5 | 79.4 | 48.9 | > 100 | 78.6 | 46.4 | 84.3 | > 100 | 91.6 | 56.4 | 73.4 | inhibition at 10 µM [22]: 87.4%; inhibition at 10 µM [23]: 81.1%; inhibition at 10 µM [24]: 71.8%; inhibition at 10 µM [25]: 86.6%; inhibition at 10 µM [26]: 56.2%
